Measurements: patent publication US9028845B2, “Chimeric immunomodulatory compounds and methods of using the same-IV” (Dynavax Technologies Corporation, priority 2001, dated 2015)
Strand notation (5' to 3'): a small letter for the sugar, then the base; units joined by * are phosphorothioate-linked, units joined directly phosphodiester-linked; [ ] holds rarer units or linkages, { } end groups; capitals alone tell only the bases. d = 2'-deoxy (DNA)

Tested on: human PBMCs
Assay: Human PBMC cytokine response assay (IFN-γ and IFN-α in cell-free medium by ELISA), with or without cPLGA;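 for IFN-α (pg/ml) mean: 20 µg/mL compound for 24 hours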;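 for IFN-γ (pg/ml) mean: 20 µg/mL compound for 24 hours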
Type: cell-based
[1] = Table 24, mean of donors 28234-28237
[2] = Table 25, mean of donors 28250-28253
[3] = donor 28066, 20 ug/ml, 24 h, + PLGA = premixed with 100 μg/ml cPLGA
[4] = donor 28067, 20 ug/ml, 24 h, + PLGA = premixed with 100 μg/ml cPLGA
[5] = donor 28068, 20 ug/ml, 24 h, + PLGA = premixed with 100 μg/ml cPLGA
[6] = mean of Donors 1-2, 20 μg/ml, 24 h
[7] = mean of Donors 3-4, 20 μg/ml, 24 h
[8] = mean of Donors 5-6, 20 μg/ml (mixtures: 20 μg/ml total), 24 h
[9] = mean of Donors 7-8, 20 μg/ml, 24 h
[10] = mean of Donors 9-12, 20 μg/ml, 24 h
[11] = mean of donors 110, 112, 119, 120, Table 14
[12] = mean of donors 28057-28060, Table 16
[13] = mean of donors 28065-28068, 20 ug/ml, 24 h, + PLGA = premixed with 100 μg/ml cPLGA
[14] = mean of donors 28185-28188, Table 15
[15] = mean of donors 28218-28221, 20 μg/ml, 24 h

5′-TGACTGTGAACCTTAGAGATGA-3′ (SEQ ID NO: 3) (dT*dG*dA*dC*dT*dG*dT*dG*dA*dA*dC*dC*dT*dT*dA*dG*dA*dG*dA*dT*dG*dA) [Compound P-7, negative control, reference compound]
IFN-γ mean (Table 11, mean of donors): 34 pg/mL | IFN-α (Table 24, donor 28234): 62 pg/mL | IFN-γ (Table 24, donor 28234): 13 pg/mL | IFN-α (Table 24, donor 28235): 16 pg/mL | IFN-γ (Table 24, donor 28235): 4 pg/mL | IFN-α (Table 24, donor 28236): 16 pg/mL | IFN-γ (Table 24, donor 28236): 7 pg/mL | IFN-α (Table 24, donor 28237): 16 pg/mL | IFN-γ (Table 24, donor 28237): 4 pg/mL | IFN-α mean [1]: 28 pg/mL | IFN-γ mean [1]: 7 pg/mL | IFN-a (Table 25, donor 28250): 16 pg/mL | IFN-g (Table 25, donor 28250, polynucleotides/spacers at amounts equivalent to the CIC, spacers alone 9 uM): 104 pg/mL | IFN-a (Table 25, donor 28251): 16 pg/mL | IFN-g (Table 25, donor 28251): 1 pg/mL | IFN-a (Table 25, donor 28252): 16 pg/mL | IFN-g (Table 25, donor 28252): 39 pg/mL | IFN-a (Table 25, donor 28253): 16 pg/mL | IFN-g (Table 25, donor 28253): 1 pg/mL | IFN-a mean [2]: 16 pg/mL | IFN-g mean [2]: 36 pg/mL | IFN-α (donor 110, Table 14): 2 pg/mL | IFN-γ (donor 110, Table 14): 124 pg/mL | IFN-α (donor 112, Table 14): 32 pg/mL | IFN-γ (donor 112, Table 14): 24 pg/mL | IFN-α (donor 119, Table 14): 474 pg/mL | IFN-γ (donor 119, Table 14): 16 pg/mL | IFN-α (donor 120, Table 14): 2 pg/mL | IFN-γ (donor 120, Table 14): 40 pg/mL | IFN-α (donor 28057, Table 16): 0 pg/mL | IFN-γ (donor 28057, Table 16): 1 pg/mL | IFN-α (donor 28058, Table 16): 0 pg/mL | IFN-γ (donor 28058, Table 16): 2 pg/mL | IFN-α (donor 28059, Table 16): 0 pg/mL | IFN-γ (donor 28059, Table 16): 3 pg/mL | IFN-α (donor 28060, Table 16): 0 pg/mL | IFN-γ (donor 28060, Table 16): 4 pg/mL | IFN-γ (pg/ml) 28065 (donor 28065 (high background), 20 ug/ml, 24 h, + PLGA = premixed with 100 μg/ml cPLGA, 1000 = outside assay limits): 397 pg/mL | IFN-α (pg/ml) 28065 (donor 28065, 20 ug/ml, 24 h, + PLGA = premixed with 100 μg/ml cPLGA): 0 pg/mL | IFN-α (pg/ml) 28066 [3]: 8 pg/mL | IFN-γ (pg/ml) 28066 [3]: 1 pg/mL | IFN-α (pg/ml) 28067 [4]: 0 pg/mL | IFN-γ (pg/ml) 28067 [4]: 8 pg/mL | IFN-α (pg/ml) 28068 [5]: 3 pg/mL | IFN-γ (pg/ml) 28068 [5]: 15 pg/mL | IFN-a (donor 28185, Table 15): 4 pg/mL | IFN-g (donor 28185, Table 15): 0 pg/mL | IFN-a (donor 28186, Table 15): 25 pg/mL | IFN-g (donor 28186, Table 15): 4 pg/mL | IFN-a (donor 28187, Table 15): 5 pg/mL | IFN-g (donor 28187, Table 15): 19 pg/mL | IFN-a (donor 28188, Table 15): 31 pg/mL | IFN-g (donor 28188, Table 15): 2 pg/mL | IFN-a (pg/ml) 28218 (donor 28218, 20 μg/ml, 24 h): 32 pg/mL | IFN-g (pg/ml) 28218 (donor 28218, 20 μg/ml, 24 h): 5 pg/mL | IFN-a (pg/ml) 28219 (donor 28219, 20 μg/ml, 24 h): 32 pg/mL | IFN-g (pg/ml) 28219 (donor 28219, 20 μg/ml, 24 h): 5 pg/mL | IFN-a (pg/ml) 28220 (donor 28220, 20 μg/ml, 24 h): 32 pg/mL | IFN-g (pg/ml) 28220 (donor 28220, 20 μg/ml, 24 h): 5 pg/mL | IFN-a (pg/ml) 28221 (donor 28221, 20 μg/ml, 24 h): 32 pg/mL | IFN-g (pg/ml) 28221 (donor 28221, 20 μg/ml, 24 h): 5 pg/mL | IFN-α (pg/ml) mean [6]: 0 pg/mL | IFN-γ (pg/ml) mean [6]: 231 pg/mL | IFN-α (pg/ml) mean [7]: 15 pg/mL | IFN-γ (pg/ml) mean [7]: 5 pg/mL | IFN-α (pg/ml) mean [8]: 57 pg/mL | IFN-γ (pg/ml) mean [8]: 37 pg/mL | IFN-α (pg/ml) mean [9]: 0 pg/mL | IFN-γ (pg/ml) mean [9]: 2 pg/mL | IFN-α mean [10]: 2 | IFN-γ mean [10]: 3 | IFN-α (pg/ml) mean [11]: 128 pg/mL | IFN-γ (pg/ml) mean [11]: 51 pg/mL | IFN-α (pg/ml) mean [12]: 0 pg/mL | IFN-γ (pg/ml) mean [12]: 2 pg/mL | IFN-α (pg/ml) mean [13]: 3 pg/mL | IFN-γ (pg/ml) mean [13]: 105 pg/mL | IFN-a (pg/ml) mean [14]: 16 pg/mL | IFN-g (pg/ml) mean [14]: 6 pg/mL | IFN-a (pg/ml) mean [15]: 32 pg/mL | IFN-g (pg/ml) mean [15]: 5 pg/mL | IFN-a (pg/ml) ×2 (mean ×2, Table 15): 32 pg/mL | IFN-g (pg/ml) ×4 (mean ×4, Table 15): 25 pg/mL | immunomodulatory activity (IFN-γ / IFN-α secretion), in words (used alone (no cPLGA)): no activity
